Test results published in patent US5073571A, “Method of inhibiting virus” (priority 1989, dated 1991).

What was measured:
H9 cells = assay: Toxicity in HIV-1 infected H9 cells: viable cell count by trypan blue exclusion; format: cell-based, human
Description: Media was changed every other day. The effect of these compounds on virus production was determined by measuring the reverse transcriptase (RT) activity in samples of the cell culture supernatants. […] Negative controls consisted of no additions or 0.1ethanol. The results of duplicate assays were averaged. Panel B -Concentration-dependent effects of 13-oxamyristic acid on HIV-1 replication as measured by RT activity (percent of untreated control) and the presence of p24 antigen (ng/ml determined by ELISA). Error bars indicate the S.E.M. of assays done in triplicate. Panel C - The effect of 13-oxamyristic acid on syncytia formation using an arbitrary scale described under Materials and Methods, Example 16, below. Panel D - Toxicity of 13-oxamyristic acid determined by viable cell count (trypan blue exclusion), as well as by [^3 H]thymidine and [^3 H]leucine labeling (see under Materials and Methods, Example 16, below). The incorporation of these radiolabeled compounds was determined in the total cell population contained in a well after 10 days of treatment with the analog. Duplicate assays were performed and the results averaged.
Toxicity Studies. These analyses were conducted for both assay systems. Cell survival was determined by trypan-blue exclusion. The number of unstained cells/mL in the treated cultures was divided by the number of unstained cells/mL in the untreated control cultures and expressed as percent control. Protein synthesis was measured at the end of the treatment periods by metabolic labeling for 4 hrs with L-[4,5^3 H(N)]-leucine (2 μCi/mL media, specific activity =140 Ci/mmol). All cells contained in a given well of a 24 well plate were recovered by scraping, the protein precipitated by TCA (final concentration =10%) and the solution subsequently incubated at 100° C. for 5 min prior to passage over glass fiber filters (Whatman). In the case of the H-9 assay, treated or untreated cells were pulsed labeled at the conclusion of the 10 day incubation. […] DNA synthesis was assessed on day 10 of the H9 assay. […]

MoMLV = MoMLV replication: LZ1 virus titer by histochemical staining of NIH 3T3 cells for β-galactosidase; format: cell-based, Maloney murine leukemia virus; conditions: up to 100 μM, 2 day treatment of LZ1 cells
Source text: Panel A -Schematic representation of the MoMLV assay system. […] This cell produces infectious, replication defective virus (designated (LZ1) which carries the LacZ gene. When NIH3T3 cells are exposed to supernatant taken from the LZ1 virus producing cells, they are initially infected and their progeny are detectable by histochemical staining for β-galactosidase. Thus, the titer of the virus produced by the LZ1 cells after treatment with the various agents, can be readily determined by counting the number of blue NIH3T3 cells. Replication competent MoMLV is not detected using this assay system since the lacZ gene product is not present. Panel B - The effect of 6-oxamyristic acid and 13-oxamyristic acid on LZ1 virus production. The results represent the mean (+1 standard deviation) of three independent tests each done in duplicate. Panel C - Number of viable LZ1 producing cells at the end of a 2 day treatment with analog as measured by trypan blue exclusion. The results of duplicate assays were averaged. Panel D - The effects of analog treatment on incorporation of [^3 H]leucine. Cells in duplicate wells were pulse labeled for 4 h following three days of incubation with analog or ethanol (0.1%). Duplicate assays were performed. The results were averaged and expressed as a percentage of the results obtained from untreated cells.
Assay of the Effects of Analogs on the Replication of Maloney Murine Leukemia Virus. The LZ1 titer assay was developed for rapid histochemical quantitation of infectious virus production. In brief, the LZ1 virus-producing cell line was derived by Sanes et al., EMBO J. 5, 3133-3142 (1986), from the .PSI.-2 cell line. .PSI.-2-cells are NIH 3T3 cells that contain a stably integrated packaging mutant (pMOV-.PSI.-) of MoMLV. This mutant has a deletion of 350 nucleotides between the 5' donor splice site for env and the initiator methionine codon for Pr65^gag [Mann et al., Cell 33, 153-159 (1983)]. The LZ1 cell line is a subclone of .PSI.-2 cells that were co-transfectd with pM-MuLV-SV-LacZ [Sanes et al., supra.]and pSVTK neoB and then selected for G418 (Geneticin®) antibiotic resistance and production of defective MoMLV containing the E. coli β-galactosidase gene [Sanes et al., supra.]. The recombinant virus produced by LZ1 cells is capable of primary infection of NIH 3T3 cells but is replication defective [Sanes et al., surpa.]. Infected NIH 3T3 containing the lac-Z gene can be identified by histochemical staining for β-galactosidase activity.
To assess the effects of analog treatment on MoMLV replication, 1 × 10^5 LZ1 producing cells were added to each well of a 24-well tissue culture plate in 1 mL of Dulbecco's Modified Eagle's medium (DME) containing calf serum (final concentration =10%), penicillin (100 IU/mL), streptomycin (100 μg/mL) with or without analog (10-100 μM). After 24 h, the media was removed and fresh serum-containing media ±analog was added. The next day (48 hours after plating), the virus containing supernatant was removed and passed through a 0.2 μm filter. Various size aliquots (25-100 μL of the 1 mL filtrate) were added to 1 × 10^4 NIH 3T3 cells contained in 1 mL of DME/10% calf serum/penicillin/streptomycin. These indicator cells had been plated 24 h earlier in 24 well tissue culture plates. Polybrene (Sigma) was added at the same time as the filtrate so that its final concentration was 10 μg/mL. […]

With COCCCCCCCCCCCC(=O)O [13-oxamyristate, 12-(Methoxy)dodecanoic acid] the “viable cell count in HIV-1 infected H9 cultures relative to untreated controls” value (H9 cells; 20 to 40 μM, 10 day treatment) was “equivalent to that of untreated controls”, the “viable cell count in HIV-1 infected H9 cultures” value (H9 cells; 10 day treatment, trypan blue exclusion) was “an increase in viable cell count was observed” and the “direct toxicity to the cells” value (H9 cells; HIV-1 infected H9 cells, suggested by viable cell number) was “not directly toxic to the cells”. The “effect on MoMLV replication” value (MoMLV) was “no effect on virus replication”.
